Calls of active or inactive are those of the source. The calls are words filed in the database; no cut-off is given here.
Experiments:
PC-12 [1] = assay: Induction of neurite outgrowth in rat PC12D cells at 1 to 30 uM in absence of nerve growth factor by microscopy; format: functional, cell-based
PC-12 [2] = assay: Enhancement of nerve growth factor-stimulated neurite outgrowth in rat PC12D cells at > 10 uM by microscopy; format: functional, cell-based

## COc1cc(CCC(=O)c2ccc(O)cc2O)ccc1Oc1cc(CCC(=O)c2ccc(O)cc2O)ccc1O
PC-12 [1]
  Activity: inactive
PC-12 [2]
  Activity: Active
